Source: patent US20050256304A1, “Modified factor VIII” (priority 2002, published 2005)

Columns and labels:
[1] = test system: T-cells derived from haemophiliac patients; assay: T-cell proliferation with FVIII specific T cell lines from haemophiliac patients; type: cell-based, human; conditions: T-cells from haemophiliac blood
Description: In a further embodiment of this approach, the inventors have provided a method whereby the FVIII sequence is scanned for the presence and location of T-cell epitopes using ex vivo biological T-cell assays where the T-cells are derived from haemophiliac patients. For a proportion of such patients the FVIII protein constitutes a foreign protein and a potent antigen in vivo. The inventors have established that it is possible to derive polyclonal and in principle mononclonal T-cell lines in vitro from the PBMC of such individuals and these lines may be used as effective reagents in the mapping of T-cell epitopes within the FVIII protein. […]
In the present case in the synthetic peptides were analysed using a system of pools each containing 8 different peptide sequences. […] These cells are stimulated with antigen (e.g. synthetic peptide or whole protein) using most preferably autologous antigen presenting cells as previously for around 4 days and the subsequent proliferative response (if any) is measured thereafter. […] In this way any individual T-cell epitope is represented in 2 separate pools and induced proliferation will be detected from treatments using both of those pools. Where a proliferative response is detected to any given peptide pool, the peptide pool is decoded repeating the assay using the individual pool members in isolation. […]

naïve human T-cells = assay: Naïve T cell epitope map: ex vivo T-cell proliferation using PBMC from healthy donors; type: cell-based; conditions: cells of a healthy non haemophiliac individual
Description: This approach has proven to be a particularly effective method and is disclosed herein as an embodiment of the invention. The method can be applied to test part of the sequence, for example a FVIII protein lacking all or part of the B-domain; the method can be applied to selected regions of the sequence, for example a sub-set of FVIII peptides such as all or some of those listed in FIG. 1; or the method may be applied to test whole FVIII sequence. In the present studies, the method has involved the testing of overlapping FVIII-derived peptide sequences in a scheme so as to scan and test a FVIII sequence lacking the B-domain. The synthetic peptides are tested for their ability to evoke a proliferative response in human T-cell cultured in vitro. […] The stimulation index is conventionally derived by division of the proliferation score (e.g. counts per minute of radioactivity if using ^3H-thymidine incorporation) measured to the test peptide by the score measured in cells not contacted with a test peptide.
Blood from 40 healthy HLA-DR typed donors was used to isolate PBMC which were used to screen individual FVIII peptides at two concentrations (1 and 5 μM). […] MHC allotypes were detected using
PBMC contain physiological numbers of naïve T cells and antigen presenting cells. […] Cultures were harvested onto filtermats and the cpm/well was determined using a Wallac Microplate Beta counter.

| Sequence | proliferation of ex vivo T-cells [1] | proliferation of ex vivo T-cells (naïve human T-cells) |
| --- | --- | --- |
| IARYIRLHPTHYSIRSTLRM [Peptide P11] | active | – |
| ISQFIIMYSLDGKKW [Peptide P10] | able to evoke proliferation of ex vivo T-cells | able to evoke proliferation of ex vivo T-cells |
